Source: EP0584797A2, “Novel cephalosporin compounds and processes for the preparation thereof” (LUCKY LTD., priority 1992, dated 1994)
≈ marks a conversion by molar mass, not a printed value.

Assays:
Assay in all cases: minimal inhibitory concentration, two-fold agar dilution
Format in all cases: cell-based
[1] = test system: Acinetobacter calcoaceticus ATCC 15437; details: ATCC15437, Muller-Hinton agar, 37°C, 20 hours, read-out: MIC values against the standard strains
Method in brief: (§1)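 Compounds were serially diluted two-fold into Mueller-Hinton agar, and each plate was spot-inoculated with the test strain at 10⁷ CFU per ml. Plates were incubated at 37°C for 20 hours before MIC values were read.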

[2] = test system: Bacillus cereus ATCC 11778; details: ATCC11778, Muller-Hinton agar, 37°C, 20 hours, read-out: MIC values against the standard strains
Method in brief: as §1

[3] = test system: Bacillus megaterium ATCC 9885; details: Priestia megaterium, ATCC9885; Muller-Hinton agar; 37°C; 20 hours; read-out: MIC values against the standard strains
Method in brief: as §1

[4] = test system: Citrobacter freundii ATCC 8090; details: ATCC8090, Muller-Hinton agar, 37°C, 20 hours, read-out: MIC values against the standard strains
Method in brief: as §1

[5] = test system: Enterobacter aerogenes ATCC 29751; details: Klebsiella aerogenes, ATCC29751; Muller-Hinton agar; 37°C; 20 hours; read-out: MIC values against the standard strains
Method in brief: as §1

[6] = test system: Enterobacter cloacae ATCC 27508; details: ATCC27508, Muller-Hinton agar, 37°C, 20 hours, read-out: MIC values against the standard strains
Method in brief: as §1

[7] = test system: Escherichia coli ATCC 10536; details: ATCC10536, Muller-Hinton agar, 37°C, 20 hours, read-out: MIC values against the standard strains
Method in brief: as §1

[8] = test system: Escherichia coli ATCC 25922; details: ATCC25922, Muller-Hinton agar, 37°C, 20 hours, read-out: MIC values against the standard strains
Method in brief: as §1

[9] = test system: Klebsiella pneumoniae ATCC 10031; details: ATCC10031, Muller-Hinton agar, 37°C, 20 hours, read-out: MIC values against the standard strains
Method in brief: as §1

[10] = test system: Micrococcus luteus ATCC 9341; details: ATCC9341, Muller-Hinton agar, 37°C, 20 hours, read-out: MIC values against the standard strains
Method in brief: as §1

[11] = test system: Morganella morganii ATCC 8076h; details: ATCC8076H, Muller-Hinton agar, 37°C, 20 hours, read-out: MIC values against the standard strains
Method in brief: as §1

[12] = test system: Proteus mirabilis ATCC 25933; details: ATCC25933, Muller-Hinton agar, 37°C, 20 hours, read-out: MIC values against the standard strains
Method in brief: as §1

[13] = test system: Proteus vulgaris ATCC 6059; details: ATCC6059, Muller-Hinton agar, 37°C, 20 hours, read-out: MIC values against the standard strains
Method in brief: as §1

[14] = test system: Providencia rettgeri ATCC 9250; details: ATCC9250, Muller-Hinton agar, 37°C, 20 hours, read-out: MIC values against the standard strains
Method in brief: as §1

[15] = test system: Pseudomonas aeruginosa ATCC 10145; details: ATCC10145, Muller-Hinton agar, 37°C, 20 hours, read-out: MIC values against the standard strains
Method in brief: as §1

[16] = test system: Pseudomonas aeruginosa ATCC 25619; details: ATCC25619, Muller-Hinton agar, 37°C, 20 hours, read-out: MIC values against the standard strains
Method in brief: as §1

[17] = test system: Pseudomonas aeruginosa ATCC 27853; details: ATCC27853, Muller-Hinton agar, 37°C, 20 hours, read-out: MIC values against the standard strains
Method in brief: as §1

[18] = test system: Salmonella typhimurium ATCC 14028; details: Salmonella enterica; Muller-Hinton agar; 37°C; 20 hours; read-out: MIC values against the standard strains
Method in brief: as §1

[19] = test system: Serratia marcescens ATCC 27117; details: ATCC27117, Muller-Hinton agar, 37°C, 20 hours, read-out: MIC values against the standard strains
Method in brief: as §1

[20] = test system: Shigella flexneri ATCC 11836; details: ATCC11836, Muller-Hinton agar, 37°C, 20 hours, read-out: MIC values against the standard strains
Method in brief: as §1

[21] = test system: Shigella sonnei ATCC 11060; details: ATCC11060, Muller-Hinton agar, 37°C, 20 hours, read-out: MIC values against the standard strains
Method in brief: as §1

[22] = test system: Staphylococcus aureus ATCC 10537; details: ATCC10537, Muller-Hinton agar, 37°C, 20 hours, read-out: MIC values against the standard strains
Method in brief: as §1

[23] = test system: Staphylococcus aureus ATCC 6538p; details: ATCC6538P, Muller-Hinton agar, 37°C, 20 hours, read-out: MIC values against the standard strains
Method in brief: as §1

[24] = test system: Staphylococcus epidermidis ATCC 12228; details: ATCC12228, Muller-Hinton agar, 37°C, 20 hours, read-out: MIC values against the standard strains
Method in brief: as §1

[25] = test system: Streptococcus faecalis ATCC 29212; details: Enterococcus faecalis, ATCC29212; Muller-Hinton agar; 37°C; 20 hours; read-out: MIC values against the standard strains
Method in brief: as §1

SMILES | MIC [1] [µg/mL] | MIC [2] [µg/mL] | MIC [3] [µg/mL] | MIC [4] [µg/mL] | MIC [5] [µg/mL] | MIC [6] [µg/mL] | MIC [7] [µg/mL] | MIC [8] [µg/mL] | MIC [9] [µg/mL] | MIC [10] [µg/mL] | MIC [11] [µg/mL] | MIC [12] [µg/mL] | MIC [13] [µg/mL] | MIC [14] [µg/mL] | MIC [15] [µg/mL] | MIC [16] [µg/mL] | MIC [17] [µg/mL] | MIC [18] [µg/mL] | MIC [19] [µg/mL] | MIC [20] [µg/mL] | other results
C[n+]1ccc(N)nc1SCC1=C(C(=O)[O-])N2C(=O)[C@@H](NC(=O)/C(=N\O)c3csc(N)n3)[C@H]2SC1 [Example 10, 7-[(Z)-2-(2-aminothiazol-4-yl)-2-oxyiminoacetamido]-3-(4-amino-1-methylpyrimidinium-2-yl)thiomethyl-3-cephem-4-carboxylate] | 0.063 (≈ 0.121 µM) | 32 (≈ 61.2 µM) | 0.13 (≈ 0.249 µM) | 0.063 (≈ 0.121 µM) | 0.063 (≈ 0.121 µM) | 0.016 (≈ 0.0306 µM) | 0.25 (≈ 0.478 µM) | 0.25 (≈ 0.478 µM) | 0.25 (≈ 0.478 µM) | 0.25 (≈ 0.478 µM) | 0.016 (≈ 0.0306 µM) | 0.25 (≈ 0.478 µM) | 1 (≈ 1.91 µM) | ≤ 0.008 | > 128 | 128 (≈ 245 µM) | > 128 | 0.5 (≈ 0.957 µM) | 0.5 (≈ 0.957 µM) | 0.016 (≈ 0.0306 µM) | MIC [21]: 1 µg/mL (≈ 1.91 µM); MIC [22]: 0.25 µg/mL (≈ 0.478 µM); MIC [23]: 0.5 µg/mL (≈ 0.957 µM); MIC [24]: 0.063 µg/mL (≈ 0.121 µM); MIC [25]: 8 µg/mL (≈ 15.3 µM)
C[n+]1ccc(N)nc1SCC1=C(C(=O)[O-])N2C(=O)[C@@H](NC(=O)/C(=N\OC(C)(C)C(=O)O)c3csc(N)n3)[C@H]2SC1 [Example 2, 7-[(Z)-2-(aminothiazol-4-yl)-2-(carboxyprop-2-oxyimino)acetamido]-3-(4-amino-1-methylpyrimidinium-2-yl)thiomethyl-3-cephem-4-carboxylate] | 4 (≈ 6.57 µM) | 64 (≈ 105 µM) | 0.25 (≈ 0.411 µM) | 0.031 (≈ 0.0509 µM) | 1 (≈ 1.64 µM) | ≤ 0.008 | 0.031 (≈ 0.0509 µM) | 0.031 (≈ 0.0509 µM) | 0.031 (≈ 0.0509 µM) | 0.25 (≈ 0.411 µM) | ≤ 0.008 | 0.031 (≈ 0.0509 µM) | 0.063 (≈ 0.104 µM) | ≤ 0.008 | 2 (≈ 3.29 µM) | 1 (≈ 1.64 µM) | 1 (≈ 1.64 µM) | 0.13 (≈ 0.214 µM) | 0.063 (≈ 0.104 µM) | 0.016 (≈ 0.0263 µM) | MIC [21]: 0.063 µg/mL (≈ 0.104 µM); MIC [22]: 2 µg/mL (≈ 3.29 µM); MIC [23]: 4 µg/mL (≈ 6.57 µM); MIC [24]: 2 µg/mL (≈ 3.29 µM); MIC [25]: > 128 µg/mL
CCO/N=C(\C(=O)N[C@@H]1C(=O)N2C(C(=O)[O-])=C(CSc3nc(N)c(N)c(N)[n+]3C)CS[C@H]12)c1nsc(N)n1 [Example 5] | 2 (≈ 3.44 µM) | 16 (≈ 27.5 µM) | 0.063 (≈ 0.108 µM) | 0.13 (≈ 0.223 µM) | 0.016 (≈ 0.0275 µM) | 0.13 (≈ 0.223 µM) | 0.063 (≈ 0.108 µM) | 0.063 (≈ 0.108 µM) | 0.016 (≈ 0.0275 µM) | 0.031 (≈ 0.0533 µM) | ≤ 0.008 | 0.5 (≈ 0.86 µM) | 0.5 (≈ 0.86 µM) | ≤ 0.008 | 4 (≈ 6.88 µM) | 0.5 (≈ 0.86 µM) | 2 (≈ 3.44 µM) | 0.25 (≈ 0.43 µM) | 0.25 (≈ 0.43 µM) | 0.031 (≈ 0.0533 µM) | MIC [21]: 0.25 µg/mL (≈ 0.43 µM); MIC [22]: 0.25 µg/mL (≈ 0.43 µM); MIC [23]: 0.5 µg/mL (≈ 0.86 µM); MIC [24]: 0.25 µg/mL (≈ 0.43 µM); MIC [25]: 32 µg/mL (≈ 55 µM)
